# Measured values from BindingDB's records for doi:10.1021/acsmedchemlett.5b00177 (Dart Neuroscience, 2015).
# Molecular target: Methionine aminopeptidase 2 (Homo sapiens) (UniProt P50579)
# Test: Inhibition of human METAP2 using Met-Pro-Arg-pNa substrate by para-nitroanilide chromophore release detection assay
# Methionine aminopeptidase 2 (Homo sapiens), sequence (P50579 whole entry, looked up): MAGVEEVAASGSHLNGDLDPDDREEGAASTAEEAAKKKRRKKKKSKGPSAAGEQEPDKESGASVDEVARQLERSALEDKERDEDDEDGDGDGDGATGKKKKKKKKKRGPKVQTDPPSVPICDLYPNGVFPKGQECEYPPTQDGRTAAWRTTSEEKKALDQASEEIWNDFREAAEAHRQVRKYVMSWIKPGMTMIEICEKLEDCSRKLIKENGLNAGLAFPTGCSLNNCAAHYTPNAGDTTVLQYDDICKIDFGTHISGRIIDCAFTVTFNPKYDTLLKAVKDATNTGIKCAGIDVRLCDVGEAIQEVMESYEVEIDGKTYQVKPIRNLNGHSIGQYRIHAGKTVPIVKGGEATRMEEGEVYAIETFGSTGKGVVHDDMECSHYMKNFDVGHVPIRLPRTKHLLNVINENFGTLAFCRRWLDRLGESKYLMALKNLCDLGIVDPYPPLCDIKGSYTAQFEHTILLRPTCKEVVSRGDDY
row,IC50 [µM],Compound
1,24,CN1CCN(c2cncc(-c3cnc4c5[nH]ncc5c(=O)n(CC(F)(F)F)c4c3)c2)CC1
2,13,O=c1c2cn[nH]c2c2cnc(-c3ncccc3Cl)cc2n1CC(F)(F)F
3,5,CN1CCN(c2ccc(-c3cnc4c5[nH]ncc5c(=O)n(CC(F)(F)F)c4c3)cn2)CC1
4,20,O=c1c2cn[nH]c2c2ncc(-c3ccccc3C(F)(F)F)cc2n1CC(F)(F)F
